According to ChEMBL document CHEMBL2434908, “Synthesis and antibacterial evaluation of 3,3-diindolylmethane derivatives” (Med Chem Res, 2013):
≈ marks a conversion by molar mass, not a printed value. Values belong to the compound of their own block, whether it stands above or below them.

Experiments:
Staphylococcus aureus = assay: Antibacterial activity against Staphylococcus aureus assessed as growth inhibition by agar plate method; assay type: functional
Proteus mirabilis = assay: Antibacterial activity against Proteus mirabilis assessed as growth inhibition by agar plate method; assay type: functional
Lactococcus lactis = assay: Antibacterial activity against Lactococcus lactis assessed as growth inhibition by agar plate method; assay type: functional
Rhodococcus = assay: Antibacterial activity against Rhodococcus Sp. assessed as growth inhibition by agar plate method; assay type: functional
Shigella flexneri = assay: Antibacterial activity against Shigella flexneri assessed as growth inhibition by agar plate method; assay type: functional
[1] = system: Mycolicibacterium smegmatis; assay: Antibacterial activity against Mycobacterium smegmatis assessed as growth inhibition by agar plate method; assay type: functional
Escherichia coli = assay: Antibacterial activity against Escherichia coli assessed as growth inhibition by agar plate method; assay type: functional
[2] = system: Arthrobacter protophormiae; assay: Antibacterial activity against Arthrobacter protophormiae assessed as growth inhibition by agar plate method; assay type: functional; settings: Glutamicibacter protophormiae
Pseudomonas aeruginosa = assay: Antibacterial activity against Pseudomonas aeruginosa assessed as growth inhibition by agar plate method; assay type: functional
Bacillus subtilis = assay: Antibacterial activity against Bacillus subtilis assessed as growth inhibition by agar plate method; assay type: functional
[3] = Hemolytic activity in human RBC at 12.5 ug/mL after 1 hr by spectrophotometric analysis relative to control; assay type: ADME, cell-based, Erythrocyte; settings: human red blood cells, read-out: Activity
[4] = Hemolytic activity in human RBC up to 400 ug/mL after 1 hr by spectrophotometric analysis relative to control; assay type: ADME, cell-based, Erythrocyte
[5] = Hemolytic activity in human RBC up to 200 ug/mL after 1 hr by spectrophotometric analysis relative to control; assay type: ADME, cell-based, Erythrocyte; settings: human red blood cells, read-out: Activity

SMILES: COc1ccc2[nH]cc(Cc3c[nH]c4ccc(OC)cc34)c2c1
- MIC (Staphylococcus aureus): > 500 mg/L
- MIC (Proteus mirabilis): > 500 mg/L
- MIC (Lactococcus lactis): > 500 mg/L
- MIC (Rhodococcus): > 500 mg/L
- MIC (Shigella flexneri): > 500 mg/L
- MIC [1]: > 500 mg/L
- MIC (Escherichia coli): > 500 mg/L
- MIC [2]: > 500 mg/L
- MIC (Pseudomonas aeruginosa): > 500 mg/L
- MIC (Bacillus subtilis): > 500 mg/L

SMILES: Cc1[nH]c2ccccc2c1Cc1c(C)[nH]c2ccccc12
- MIC (Staphylococcus aureus): > 500 mg/L
- MIC (Proteus mirabilis): > 500 mg/L
- MIC (Lactococcus lactis): > 500 mg/L
- MIC (Rhodococcus): > 500 mg/L
- MIC (Shigella flexneri): > 500 mg/L
- MIC [1]: > 500 mg/L
- MIC (Escherichia coli): > 500 mg/L
- MIC [2]: > 500 mg/L
- MIC (Pseudomonas aeruginosa): > 500 mg/L
- MIC (Bacillus subtilis): > 500 mg/L

SMILES: OC[C@@H](O)[C@H](O)[C@H](O)[C@@H](O)C(c1c[nH]c2ccccc12)c1c[nH]c2ccccc12
- MIC (Staphylococcus aureus): > 500 mg/L
- MIC (Proteus mirabilis): > 500 mg/L
- MIC (Lactococcus lactis): > 500 mg/L
- MIC (Rhodococcus): > 500 mg/L
- MIC (Shigella flexneri): > 500 mg/L
- MIC [1]: > 500 mg/L
- MIC (Escherichia coli): > 500 mg/L
- MIC [2]: > 500 mg/L
- MIC (Pseudomonas aeruginosa): > 500 mg/L
- MIC (Bacillus subtilis): > 500 mg/L

SMILES: OC[C@@H](O)[C@@H](O)[C@H](O)[C@H](O)C(c1c[nH]c2ccccc12)c1c[nH]c2ccccc12
- MIC (Staphylococcus aureus): > 500 mg/L
- MIC (Proteus mirabilis): > 500 mg/L
- MIC (Lactococcus lactis): > 500 mg/L
- MIC (Rhodococcus): > 500 mg/L
- MIC (Shigella flexneri): > 500 mg/L
- MIC [1]: > 500 mg/L
- MIC (Escherichia coli): > 500 mg/L
- MIC [2]: > 500 mg/L
- MIC (Pseudomonas aeruginosa): > 500 mg/L
- MIC (Bacillus subtilis): > 500 mg/L

SMILES: CN[C@@H]1[C@H](O[C@H]2[C@H](O[C@H]3[C@H](O)[C@@H](O)[C@H](N=C(N)N)[C@@H](O)[C@@H]3N=C(N)N)O[C@@H](C)[C@]2(O)C=O)O[C@@H](CO)[C@H](O)[C@H]1O [STREPTOMYCIN]
- MIC (Staphylococcus aureus): 12.5 mg/L (≈ 21.5 µM)
- MIC (Proteus mirabilis): 1.25 mg/L (≈ 2.15 µM)
- MIC (Lactococcus lactis): 1.5 mg/L (≈ 2.58 µM)
- MIC (Rhodococcus): 0.75 mg/L (≈ 1.29 µM)
- MIC (Shigella flexneri): 6.25 mg/L (≈ 10.7 µM)
- MIC [1]: 1.25 mg/L (≈ 2.15 µM)
- MIC (Escherichia coli): 6.25 mg/L (≈ 10.7 µM)
- MIC [2]: 0.75 mg/L (≈ 1.29 µM)
- MIC (Pseudomonas aeruginosa): 3.15 mg/L (≈ 5.42 µM)
- MIC (Bacillus subtilis): 1.5 mg/L (≈ 2.58 µM)

SMILES: OC[C@@H](O)[C@@H](O)[C@H](O)[C@@H](O)C(c1c[nH]c2ccccc12)c1c[nH]c2ccccc12
- MIC (Staphylococcus aureus): > 500 mg/L
- MIC (Proteus mirabilis): > 500 mg/L
- MIC (Lactococcus lactis): > 500 mg/L
- MIC (Rhodococcus): > 500 mg/L
- MIC (Shigella flexneri): > 500 mg/L
- MIC [1]: > 500 mg/L
- MIC (Escherichia coli): > 500 mg/L
- MIC [2]: > 500 mg/L
- MIC (Pseudomonas aeruginosa): > 500 mg/L
- MIC (Bacillus subtilis): > 500 mg/L

SMILES: CN(C)c1ccc(C(c2c[nH]c3ccccc23)c2c[nH]c3ccccc23)cc1
- MIC (Staphylococcus aureus): > 500 mg/L
- MIC (Proteus mirabilis): > 500 mg/L
- MIC (Lactococcus lactis): > 500 mg/L
- MIC (Rhodococcus): > 500 mg/L
- MIC (Shigella flexneri): > 500 mg/L
- MIC [1]: > 500 mg/L
- MIC (Escherichia coli): > 500 mg/L
- MIC [2]: > 500 mg/L
- MIC (Pseudomonas aeruginosa): > 500 mg/L
- MIC (Bacillus subtilis): > 500 mg/L

SMILES: c1ccc(-c2[nH]c3ccccc3c2Cc2c(-c3ccccc3)[nH]c3ccccc23)cc1
- MIC (Staphylococcus aureus): > 500 mg/L
- MIC (Proteus mirabilis): > 500 mg/L
- MIC (Lactococcus lactis): > 500 mg/L
- MIC (Rhodococcus): > 500 mg/L
- MIC (Shigella flexneri): > 500 mg/L
- MIC [1]: > 500 mg/L
- MIC (Escherichia coli): > 500 mg/L
- MIC [2]: > 500 mg/L
- MIC (Pseudomonas aeruginosa): > 500 mg/L
- MIC (Bacillus subtilis): > 500 mg/L

More lines, in order of falling MIC (Staphylococcus aureus), values ahead:

- MIC (Staphylococcus aureus): 250 mg/L (≈ 1010 µM)
- MIC (Proteus mirabilis): 250 mg/L (≈ 1010 µM)
- MIC (Lactococcus lactis): 500 mg/L (≈ 2030 µM)
- MIC (Rhodococcus): 125 mg/L (≈ 507 µM)
- MIC (Shigella flexneri): 125 mg/L (≈ 507 µM)
- MIC [1]: 125 mg/L (≈ 507 µM)
- MIC (Escherichia coli): 250 mg/L (≈ 1010 µM)
- MIC [2]: 125 mg/L (≈ 507 µM)
- MIC (Pseudomonas aeruginosa): 250 mg/L (≈ 1010 µM)
- MIC (Bacillus subtilis): 250 mg/L (≈ 1010 µM)
SMILES: c1ccc2c(Cc3c[nH]c4ccccc34)c[nH]c2c1 [ARUNDINE]
- hemolysis at 1 h [5]: 20%

- MIC (Staphylococcus aureus): 250 mg/L (≈ 692 µM)
- MIC (Proteus mirabilis): 250 mg/L (≈ 692 µM)
- MIC (Lactococcus lactis): 500 mg/L (≈ 1380 µM)
- MIC (Rhodococcus): 31.2 mg/L (≈ 86.3 µM)
- MIC (Shigella flexneri): 250 mg/L (≈ 692 µM)
- MIC [1]: 31.2 mg/L (≈ 86.3 µM)
- MIC (Escherichia coli): 125 mg/L (≈ 346 µM)
- MIC [2]: 125 mg/L (≈ 346 µM)
- MIC (Pseudomonas aeruginosa): 125 mg/L (≈ 346 µM)
- MIC (Bacillus subtilis): 250 mg/L (≈ 692 µM)
SMILES: c1ccc2c(C(c3c[nH]c4ccccc34)c3c[nH]c4ccccc34)c[nH]c2c1
- Activity ([4]; erythrocyte, 1 h): Toxic
- hemolysis at 1 h [5]: 20%

- MIC (Staphylococcus aureus): 125 mg/L (≈ 400 µM)
- MIC (Proteus mirabilis): 31.2 mg/L (≈ 99.9 µM)
- MIC (Lactococcus lactis): 62.5 mg/L (≈ 200 µM)
- MIC (Rhodococcus): 31.2 mg/L (≈ 99.9 µM)
- MIC (Shigella flexneri): 31.2 mg/L (≈ 99.9 µM)
- MIC [1]: 15.5 mg/L (≈ 49.6 µM)
- MIC (Escherichia coli): 62.5 mg/L (≈ 200 µM)
- MIC [2]: 31.2 mg/L (≈ 99.9 µM)
- MIC (Pseudomonas aeruginosa): 31.2 mg/L (≈ 99.9 µM)
- MIC (Bacillus subtilis): 125 mg/L (≈ 400 µM)
SMILES: c1coc(C(c2c[nH]c3ccccc23)c2c[nH]c3ccccc23)c1
- hemolysis at 1 h, 12.5 ug/mL [3]: 50%

- MIC (Staphylococcus aureus): 62.5 mg/L (≈ 171 µM)
- MIC (Proteus mirabilis): 31.2 mg/L (≈ 85.1 µM)
- MIC (Lactococcus lactis): 62.5 mg/L (≈ 171 µM)
- MIC (Rhodococcus): 15.5 mg/L (≈ 42.3 µM)
- MIC (Shigella flexneri): 31.2 mg/L (≈ 85.1 µM)
- MIC [1]: 31.2 mg/L (≈ 85.1 µM)
- MIC (Escherichia coli): 62.5 mg/L (≈ 171 µM)
- MIC [2]: 62.5 mg/L (≈ 171 µM)
- MIC (Pseudomonas aeruginosa): 62.5 mg/L (≈ 171 µM)
- MIC (Bacillus subtilis): 125 mg/L (≈ 341 µM)
SMILES: OC[C@@H](O)[C@@H](O)[C@@H](O)C(c1c[nH]c2ccccc12)c1c[nH]c2ccccc12
- hemolysis at 1 h ([4]; human red blood cells, read-out: Activity): 15%

- MIC (Staphylococcus aureus): 32.2 mg/L (≈ 99.6 µM)
- MIC (Proteus mirabilis): 15.5 mg/L (≈ 47.9 µM)
- MIC (Lactococcus lactis): 15.5 mg/L (≈ 47.9 µM)
- MIC (Rhodococcus): 6.5 mg/L (≈ 20.1 µM)
- MIC (Shigella flexneri): 15.5 mg/L (≈ 47.9 µM)
- MIC [1]: 31.2 mg/L (≈ 96.5 µM)
- MIC (Escherichia coli): 31.2 mg/L (≈ 96.5 µM)
- MIC [2]: 15.5 mg/L (≈ 47.9 µM)
- MIC (Pseudomonas aeruginosa): 31.2 mg/L (≈ 96.5 µM)
- MIC (Bacillus subtilis): 15.5 mg/L (≈ 47.9 µM)
SMILES: c1cncc(C(c2c[nH]c3ccccc23)c2c[nH]c3ccccc23)c1
- hemolysis at 1 h [5]: 20%

- MIC (Staphylococcus aureus): 15.5 mg/L (≈ 45.8 µM)
- MIC (Proteus mirabilis): 15.5 mg/L (≈ 45.8 µM)
- MIC (Lactococcus lactis): 31.2 mg/L (≈ 92.2 µM)
- MIC (Rhodococcus): 7.5 mg/L (≈ 22.2 µM)
- MIC (Shigella flexneri): 15.5 mg/L (≈ 45.8 µM)
- MIC [1]: 6.5 mg/L (≈ 19.2 µM)
- MIC (Escherichia coli): 15.5 mg/L (≈ 45.8 µM)
- MIC [2]: 15.5 mg/L (≈ 45.8 µM)
- MIC (Pseudomonas aeruginosa): 62.5 mg/L (≈ 185 µM)
- MIC (Bacillus subtilis): 15.5 mg/L (≈ 45.8 µM)
SMILES: Oc1ccccc1C(c1c[nH]c2ccccc12)c1c[nH]c2ccccc12
- hemolysis at 1 h [5]: 20%
